Laboratory results: US20240252506A1 (Hoffmann-La Roche Inc., priority 2021, published 2024)
Values after ≈ are worked out from the molar mass of the structure shown.

System: Escherichia coli ATCC 25922
Experiment: Minimal Inhibitory Concentration (MIC) determination, broth microdilution (CLSI M07-A10)
Assay type: cell-based
Details: Escherichia coli, ATCC25922, strain Escherichia coli ATCC 25922, 18-24 hours at 35±2° C., lowest concentration for complete growth inhibition (no visible growth), read-out: Escherichia coli growth inhibition MIC
Method: Minimal Inhibitory Concentration (MIC) Determination:
The MIC of antibacterial compounds against multiple species and strains was determined using the broth microdilution method according to M07-A10 Clinical and Laboratory Standards Institute (CLSI) guidelines, using the appropriate broth medium. In short, the compound plates were prepared by dispensing 100 μL of each stock solution in the first well of a 96 well microtiter plate (MTP) at a concentration 100-fold higher than the final concentration desired in broth. Eleven serial 2-fold dilutions of the highest concentration were made in DMSO for new compounds and in water (or appropriate solution) for reference compounds [2]. 1 μL of each well was transferred in a new MTP, which served as the test plate by subsequent inoculation. This bacterial suspension was prepared from strains that were first sub-cultured on agar plates and incubated for 18-24 hours as appropriate. Following incubation, the inoculum was prepared from isolated colonies and adjusted to 0.5 McFarland turbidity standard (1 to 2×10^8 Colony Forming Units (CFU)/mL) in 0.9% saline. The bacterial suspension was then diluted 1:200 in appropriate sterile medium and within 15 minutes 100 μL/well were dispensed. Negative controls (lack of bacterial cells) and growth control wells (lack of compound) were included in all plates. MTPs were incubated for 18-24 hours at 35±2° C. in ambient air. The MIC value of each compound, expressed as μg/mL, was determined as the lowest concentration required for complete growth inhibition (no visible growth). • [1] CLSI (2015) Methods for dilution antimicrobial susceptibility tests for bacteria that grow aerobically; Approved Standard, Tenth Edition. CLSI Document M7-A10 (ISBN 1-56238-987-4). Wayne, PA: Clinical and Laboratory Standards Institute, 19087, USA. • [2] CLSI (2017) Performance Standards for Antimicrobial Susceptibility Testing; Twenty-Fifth Informational Supplement. CLSI Document M100-S27, CLSI, Wayne, Pennsylvania 19087, USA.
Table 1 provides the Minimal Inhibitory Concentrations (MIC) in micrograms per millilitre of the compounds of present invention obtained against the strain Escherichia coli ATCC 25922.

Structure (SMILES) | MIC [µg/mL]
CN(C)CCc1nc2c(F)c3c(c(F)c2[nH]1)CC(CN1CCC2(CC1)CN(c1cnc4c(n1)NC(=O)CO4)C(=O)O2)C3 [Example 7, 6-[8-[[2-[2-(dimethylamino)ethyl]-4,8-difluoro-3,5,6,7-tetrahydrocyclopenta[f]benzimidazol-6-yl]methyl]-2-oxo-1-oxa-3,8-diazaspiro[4.5]decan-3-yl]-4H-pyrazino[2,3-b][1,4]oxazin-3-one] | 0.125 (≈ 0.215 µM)
CN[C@H](C)c1nc2c(F)c3c(c(F)c2[nH]1)CC(CNC1CC2(C1)CN(c1cnc4c(n1)NC(=O)CO4)C(=O)O2)C3 (stereo partly drawn) [Example 26, 6-[2-[[4,8-difluoro-2-[(1R)-1-(methylamino)ethyl]-3,5,6,7-tetrahydrocyclopenta[f]benzimidazol-6-yl]methylamino]-6-oxo-5-oxa-7-azaspiro[3.4]octan-7-yl]-4H-pyrazino[2,3-b][1,4]oxazin-3-one] | 0.5 (≈ 0.902 µM)
CN(C)Cc1nc2c(F)c3c(c(F)c2[nH]1)CC(CN1CCC2(CC1)CN(c1cnc4c(n1)NC(=O)CO4)C(=O)O2)C3 [Example 3, 6-[8-[[2-[(dimethylamino)methyl]-4,8-difluoro-3,5,6,7-tetrahydrocyclopenta[f]benzimidazol-6-yl]methyl]-2-oxo-1-oxa-3,8-diazaspiro[4.5]decan-3-yl]-4H-pyrazino[2,3-b][1,4]oxazin-3-one] | 0.25 (≈ 0.44 µM)
CO[C@@H]1CN[C@@H](c2nc3c(F)c4c(c(F)c3[nH]2)CC(CN2CCC3(CC2)CN(c2cnc5c(n2)NC(=O)CO5)C(=O)O3)C4)C1 [Example 37, 6-[8-[[4,8-difluoro-2-[(2R,4S)-4-methoxypyrrolidin-2-yl]-3,5,6,7-tetrahydrocyclopenta[f]benzimidazol-6-yl]methyl]-2-oxo-1-oxa-3,8-diazaspiro[4.5]decan-3-yl]-4H-pyrazino[2,3-b][1,4]oxazin-3-one] | 0.25 (≈ 0.409 µM)
Cc1nc2c(F)c3c(c(F)c2[nH]1)CC(CNCCC1CN(c2cnc4c(n2)NC(=O)CO4)C(=O)O1)C3 (stereo not drawn) [Example 1, 6-[5-[2-[(4,8-Difluoro-2-methyl-3,5,6,7-tetrahydrocyclopenta[f]benzimidazol-6-yl)methylamino]ethyl]-2-oxo-oxazolidin-3-yl]-4H-pyrazino[2,3-b][1,4]oxazin-3-one] | 0.5 (≈ 1 µM)
O=C(O)C(F)(F)F.O=C1COc2ncc(N3CC4(CCN(CC5Cc6c(c(F)c7[nH]c([C@@H]8COCCN8)nc7c6F)C5)CC4)OC3=O)nc2N1 [Example 18, 6-[8-[[4,8-difluoro-2-[(3R)-morpholin-3-yl]-3,5,6,7-tetrahydrocyclopenta[f]benzimidazol-6-yl]methyl]-2-oxo-1-oxa-3,8-diazaspiro[4.5]decan-3-yl]-4H-pyrazino[2,3-b][1,4]oxazin-3-one; 2,2,2-trifluoroacetic acid] | 0.5
O=C(O)C(F)(F)F.O=C1COc2ncc(N3CC4(CCN(CC5Cc6c(c(F)c7[nH]c([C@H]8C[C@H](O)CN8)nc7c6F)C5)CC4)OC3=O)nc2N1 [Example 49, 6-[8-[[4,8-difluoro-2-[(2R,4S)-4-hydroxypyrrolidin-2-yl]-3,5,6,7-tetrahydrocyclopenta[f]benzimidazol-6-yl]methyl]-2-oxo-1-oxa-3,8-diazaspiro[4.5]decan-3-yl]-4H-pyrazino[2,3-b][1,4]oxazin-3-one; 2,2,2-trifluoroacetic acid] | 0.25
NCc1nc2c(F)c3c(c(F)c2[nH]1)CC(CN1CCC2(CC1)CN(c1cnc4c(n1)NC(=O)CO4)C(=O)O2)C3.O=C(O)C(F)(F)F [Example 10, 6-[8-[[2-(aminomethyl)-4,8-difluoro-3,5,6,7-tetrahydrocyclopenta[f]benzimidazol-6-yl]methyl]-2-oxo-1-oxa-3,8-diazaspiro[4.5]decan-3-yl]-4H-pyrazino[2,3-b][1,4]oxazin-3-one; 2,2,2-trifluoroacetic acid] | 0.125
O=C(O)C(F)(F)F.O=C1COc2ncc(N3CC4(CCN(CC5Cc6c(c(F)c7[nH]c([C@@H]8CCC(=O)N8)nc7c6F)C5)CC4)OC3=O)nc2N1 [Example 21, 6-[8-[[4,8-difluoro-2-[(2S)-5-oxopyrrolidin-2-yl]-3,5,6,7-tetrahydrocyclopenta[f]benzimidazol-6-yl]methyl]-2-oxo-1-oxa-3,8-diazaspiro[4.5]decan-3-yl]-4H-pyrazino[2,3-b][1,4]oxazin-3-one; 2,2,2-trifluoroacetic acid] | 1

Other lines, results leading:

MIC [µg/mL] | Structure (SMILES)
0.5 (≈ 0.911 µM) | O=C1COc2ccc(N3CC4(CCN(CC5Cc6cc7nc(C8CNC8)oc7c(F)c6C5)CC4)OC3=O)nc2N1 (single isomer, unassigned) [Example 111, 6-[8-[[2-(azetidin-3-yl)-8-fluoro-6,7-dihydro-5H-cyclopenta[f][1,3]benzoxazol-6-yl]methyl]-2-oxo-1-oxa-3,8-diazaspiro[4.5]decan-3-yl]-4H-pyrido[3,2-b][1,4]oxazin-3-one]
0.5 (≈ 0.804 µM) | C[C@H](C(=O)NCc1nc2cc3c(c(F)c2[nH]1)CC(CN1CCC2(CC1)CN(c1cnc4c(n1)NC(=O)CO4)C(=O)O2)C3)N(C)C (stereo partly drawn) [Example 151]
0.25 (≈ 0.452 µM) | N[C@@H](CO)c1nc2cc3c(c(F)c2o1)CC(CN1CCC2(CC1)CN(c1cnc4c(n1)NC(=O)CO4)C(=O)O2)C3 (stereo partly drawn) [Example 143, 6-[8-[[2-[(1S)-1-Amino-2-hydroxy-ethyl]-8-fluoro-6,7-dihydro-5H-cyclopenta[f][1,3]benzoxazol-6-yl]methyl]-2-oxo-1-oxa-3,8-diazaspiro[4.5]decan-3-yl]-4H-pyrazino[2,3-b][1,4]oxazin-3-one]
0.125 | O=C1COc2ncc(N3CC4(CCN(CC5Cc6c(c(F)c7nn(C8CNC8)nc7c6F)C5)CC4)OC3=O)nc2N1.O=CO [Example 79, 6-[8-[[2-(azetidin-3-yl)-4,8-difluoro-6,7-dihydro-5H-cyclopenta[f]benzotriazol-6-yl]methyl]-2-oxo-1-oxa-3,8-diazaspiro[4.5]decan-3-yl]-4H-pyrazino[2,3-b][1,4]oxazin-3-one; formic acid]
0.5 | O=C(O)C(F)(F)F.O=C1COc2ncc(N3CC4(CCN(CC5Cc6c(c(F)c7[nH]c([C@@H]8C[C@H](O)CN8)nc7c6F)C5)CC4)OC3=O)nc2N1 [Example 52, 6-[8-[[4,8-difluoro-2-[(2S,4S)-4-hydroxypyrrolidin-2-yl]-3,5,6,7-tetrahydrocyclopenta[f]benzimidazol-6-yl]methyl]-2-oxo-1-oxa-3,8-diazaspiro[4.5]decan-3-yl]-4H-pyrazino[2,3-b][1,4]oxazin-3-one; 2,2,2-trifluoroacetic acid]
0.25 (≈ 0.428 µM) | CNC(CO)c1nc2c(F)c3c(c(F)c2[nH]1)CC(CN1CCC2(CC1)CN(c1cnc4c(n1)NC(=O)CO4)C(=O)O2)C3 (single isomer, unassigned) [Example 66, 6-[8-[[4,8-Difluoro-2-[2-hydroxy-1-(methylamino)ethyl]-3,5,6,7-tetrahydrocyclopenta[f]benzimidazol-6-yl]methyl]-2-oxo-1-oxa-3,8-diazaspiro[4.5]decan-3-yl]-4H-pyrazino[2,3-b][1,4]oxazin-3-one]

Same assay, conditions: strain Escherichia coli ATCC 25922, 18-24 hours at 35±2° C., lowest concentration for complete growth inhibition (no visible growth)

Escherichia coli growth inhibition MIC [µg/mL] | Structure (SMILES)
0.25 | O=C1COc2ncc(N3CC4(CCN(CC5Cc6c(c(F)c7c(nnn7CCNC7CC7)c6F)C5)CC4)OC3=O)nc2N1.O=CO (single isomer, unassigned) [Example 125, 6-[8-[[1-[2-(Cyclopropylamino)ethyl]-4,8-difluoro-6,7-dihydro-5H-cyclopenta[f]benzotriazol-6-yl]methyl]-2-oxo-1-oxa-3,8-diazaspiro[4.5]decan-3-yl]-4H-pyrazino[2,3-b][1,4]oxazin-3-one;formic acid]
1 | O=C1COc2ncc(N3CC4(CCN(CC5Cc6cc7nc(CN8CC(O)C8)oc7c(F)c6C5)CC4)OC3=O)nc2N1 (single isomer, unassigned) [Example 99, 6-[8-[[8-fluoro-2-[(3-hydroxyazetidin-1-yl)methyl]-6,7-dihydro-5H-cyclopenta[f][1,3]benzoxazol-6-yl]methyl]-2-oxo-1-oxa-3,8-diazaspiro[4.5]decan-3-yl]-4H-pyrazino[2,3-b][1,4]oxazin-3-one]
0.125 | CNCCn1nnc2c(F)c3c(c(F)c21)CC(CN1CCC2(CC1)CN(c1cnc4c(n1)NC(=O)CO4)C(=O)O2)C3 (single isomer, unassigned) [Example 119, 6-[2-oxo-8-[[4,8-difluoro-1-[2-(methylamino)ethyl]-6,7-dihydro-5H-cyclopenta[f]benzotriazol-6-yl]methyl]-1-oxa-3,8-diazaspiro[4.5]decan-3-yl]-4H-pyrazino[2,3-b][1,4]oxazin-3-one]
